Results reported in patent publication US9539260B2, “Dihydro-benzo-oxazine and dihydro-pyrido-oxazine derivatives” (Novartis AG, priority 2012, dated 2017).

Experiments:
PI3K alpha = PI3K alpha (Homo sapiens (Human), UniProt P42336); assay: Enzymatic PI3K alpha isoform inhibition (lipid kinase activity, Kinase-Glo luminescence); assay type: biochemical; details: Enzymatic assay
Description: (§1) 1.1 Test of Lipid Kinase Activity […]
(§2) In a more preferred assay, the kinase reaction is performed in a final volume of 10 μl per well of a low volume non-binding CORNING, 384 well black plate (Cat. No. #3676). The final concentrations of ATP and phosphatidyl inositol (PI) in the assay are 1 μM and 10 μg/mL, respectively. The reaction is started by the addition of ATP.
(§3) The components of the assay are added per well as follows:
(§4) The Z′ value is a universal measurement of the robustness of an assay. A Z′ between 0.5 and 1.0 is considered an excellent assay.
(§5) IC50 is determined by a four parameter curve fitting routine that comes along with “excel fit”. A four parameter logistic equation is used to calculate IC50 values (IDBS XLfit) of the percentage inhibition of each compound at 8 concentrations (usually 10, 3.0, 1.0, 0.3, 0.1, 0.030, 0.010 and 0.003 μM). Alternatively, IC50 values are calculated using idbsXLfit model 204, which is a 4 parameter logistic model.
(§6) Yet alternatively, for an ATP depletion assay, compounds of the formula I to be tested are dissolved in DMSO and directly distributed into a white 384-well plate at 0.5 μl per well. To start the reaction, 10 μl of 10 nM PI3 kinase and 5 μg/mL 1-alpha-phosphatidylinositol (PI) are added into each well followed by 10 μl of 2 μM ATP. The reaction is performed until approx 50% of the ATP is depleted, and then stopped by the addition of 20 μl of Kinase-Glo solution (Promega Corp., Madison, Wis., USA). The stopped reaction is incubated for 5 minutes and the remaining ATP is then detected via luminescence. IC50 values are then determined.

PI3K delta = PI3K delta (Homo sapiens (Human), UniProt O00329); assay: Enzymatic PI3K delta isoform inhibition (lipid kinase activity, Kinase-Glo luminescence); assay type: biochemical; details: Enzymatic assay
Description: as §1, §2, §3, §4, §5, §6

Chain of PI3K delta (O00329 other isoform, or with tags, fused parts or gaps linker GGGGGG): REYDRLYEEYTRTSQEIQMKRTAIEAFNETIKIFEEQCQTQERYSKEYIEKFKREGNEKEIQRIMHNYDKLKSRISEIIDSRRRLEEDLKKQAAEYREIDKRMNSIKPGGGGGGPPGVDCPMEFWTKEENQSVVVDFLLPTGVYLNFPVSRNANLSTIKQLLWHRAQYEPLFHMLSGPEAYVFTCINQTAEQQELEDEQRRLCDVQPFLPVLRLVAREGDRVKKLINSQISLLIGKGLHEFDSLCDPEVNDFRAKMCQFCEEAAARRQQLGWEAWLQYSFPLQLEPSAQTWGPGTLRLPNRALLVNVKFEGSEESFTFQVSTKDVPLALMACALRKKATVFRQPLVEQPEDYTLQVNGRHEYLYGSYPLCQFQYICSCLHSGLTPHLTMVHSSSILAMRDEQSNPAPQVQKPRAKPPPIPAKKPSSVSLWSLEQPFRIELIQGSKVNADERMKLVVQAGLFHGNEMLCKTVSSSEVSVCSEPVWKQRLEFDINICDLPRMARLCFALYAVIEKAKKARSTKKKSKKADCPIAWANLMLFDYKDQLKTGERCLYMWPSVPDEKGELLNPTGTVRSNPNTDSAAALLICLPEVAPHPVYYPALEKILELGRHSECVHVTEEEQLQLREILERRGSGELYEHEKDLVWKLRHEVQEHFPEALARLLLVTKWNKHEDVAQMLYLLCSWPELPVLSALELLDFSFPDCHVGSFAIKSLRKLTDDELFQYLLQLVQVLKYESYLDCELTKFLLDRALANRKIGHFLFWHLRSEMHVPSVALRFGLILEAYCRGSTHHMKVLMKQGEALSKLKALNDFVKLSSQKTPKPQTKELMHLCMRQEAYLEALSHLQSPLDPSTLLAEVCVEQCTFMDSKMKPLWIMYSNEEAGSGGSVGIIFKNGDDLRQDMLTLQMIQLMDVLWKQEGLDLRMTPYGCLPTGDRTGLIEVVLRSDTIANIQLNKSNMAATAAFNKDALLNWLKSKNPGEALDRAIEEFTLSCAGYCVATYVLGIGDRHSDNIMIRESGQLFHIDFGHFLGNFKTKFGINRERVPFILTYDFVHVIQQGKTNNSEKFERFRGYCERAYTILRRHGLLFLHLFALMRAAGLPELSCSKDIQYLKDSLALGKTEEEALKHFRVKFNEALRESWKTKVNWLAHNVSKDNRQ
Chain of PI3K alpha (P42336 other isoform, or with tags, fused parts or gaps): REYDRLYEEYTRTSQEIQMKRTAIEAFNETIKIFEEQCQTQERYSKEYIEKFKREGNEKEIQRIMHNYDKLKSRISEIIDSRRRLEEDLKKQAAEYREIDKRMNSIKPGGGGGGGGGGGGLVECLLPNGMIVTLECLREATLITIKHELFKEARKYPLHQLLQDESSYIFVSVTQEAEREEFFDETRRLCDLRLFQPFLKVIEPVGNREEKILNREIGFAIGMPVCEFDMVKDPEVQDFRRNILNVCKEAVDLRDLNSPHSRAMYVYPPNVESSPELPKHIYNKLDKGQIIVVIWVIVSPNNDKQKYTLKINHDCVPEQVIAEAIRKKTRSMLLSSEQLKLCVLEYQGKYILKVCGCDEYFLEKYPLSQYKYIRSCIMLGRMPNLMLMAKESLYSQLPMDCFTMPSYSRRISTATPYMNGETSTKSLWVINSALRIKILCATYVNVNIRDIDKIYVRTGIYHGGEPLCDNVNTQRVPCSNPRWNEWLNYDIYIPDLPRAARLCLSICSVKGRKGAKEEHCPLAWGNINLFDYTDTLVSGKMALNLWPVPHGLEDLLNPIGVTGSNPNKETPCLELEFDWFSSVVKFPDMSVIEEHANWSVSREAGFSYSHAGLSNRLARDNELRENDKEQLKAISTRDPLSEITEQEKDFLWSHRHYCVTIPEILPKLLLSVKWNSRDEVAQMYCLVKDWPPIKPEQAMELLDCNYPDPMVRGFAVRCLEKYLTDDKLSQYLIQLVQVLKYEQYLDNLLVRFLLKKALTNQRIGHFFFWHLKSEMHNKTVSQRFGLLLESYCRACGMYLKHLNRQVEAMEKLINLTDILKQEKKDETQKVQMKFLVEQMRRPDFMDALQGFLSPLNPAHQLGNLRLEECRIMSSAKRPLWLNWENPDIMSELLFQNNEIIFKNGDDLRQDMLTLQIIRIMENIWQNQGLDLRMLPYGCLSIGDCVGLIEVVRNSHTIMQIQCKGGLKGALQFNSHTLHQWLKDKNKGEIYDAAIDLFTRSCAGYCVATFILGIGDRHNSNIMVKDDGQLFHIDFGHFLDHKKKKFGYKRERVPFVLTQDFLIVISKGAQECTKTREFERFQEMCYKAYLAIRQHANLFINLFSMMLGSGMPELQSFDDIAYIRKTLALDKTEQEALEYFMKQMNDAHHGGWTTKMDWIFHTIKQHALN

| Structure (SMILES) | IC50 (PI3K alpha) [nM] | IC50 (PI3K delta) [nM] |
| --- | --- | --- |
| COc1ncc(N2CCOc3ccc(O[C@H]4CCN(C(=O)CS(C)(=O)=O)C4)cc32)cc1Cl [Example B110, 1-{(S)-3-[4-(5-Chloro-6-methoxy-pyridin-3-yl)-3,4-dihydro-2H-benzo[1,4]oxazin-6-yloxy]-pyrrolidin-1-yl}-2-methanesulfonyl-ethanone] | 148 | 3 |
| Cc1cc(N2CCOc3ccc(O[C@H]4CCN(S(=O)(=O)C5CC5)C4)cc32)cnc1S(C)(=O)=O [Example B83, 6-((S)-1-Cyclopropanesulfonyl-pyrrolidin-3-yloxy)-4-(6-methanesulfonyl-5-methyl-pyridin-3-yl)-3,4-dihydro-2H-benzo[1,4]oxazine] | 214 | 29 |
| CCC(=O)N1CC[C@H](Oc2ccc3c(c2)N(c2cncc(S(=O)(=O)N4CCN(C)CC4)c2)CCO3)C1 [Example A28, 1-((S)-3-{4-[5-(4-Methyl-piperazine-1-sulfonyl)-pyridin-3-yl]-3,4-dihydro-2H-benzo[1,4]oxazin-6-yloxy}-pyrrolidin-1-yl)-propan-1-one] | 531 | 16 |
| Cc1cc(N2CCOc3ccc(O[C@H]4CCN(C(=O)C5CCOCC5)C4)cc32)ccn1 [Example A19, {(S)-3-[4-(2-Methyl-pyridin-4-yl)-3,4-dihydro-2H-benzo[1,4]oxazin-6-yloxy]-pyrrolidin-1-yl}-(tetrahydro-pyran-4-yl)-methanone] | 7550 | 380 |
| CCC(=O)N1CC[C@H](Oc2ccc3c(c2)N(c2cnc(OC)c(C(F)(F)F)c2)CCO3)C1 [Example A10, 1-{(S)-3-[4-(6-Methoxy-5-trifluoromethyl-pyridin-3-yl)-3,4-dihydro-2H-benzo[1,4]oxazin-6-yloxy]-pyrrolidin-1-yl}-propan-1-one] | 220 | 18 |
| COc1ncc(N2CCOc3cnc(OC4CCN(C(=O)C5CCS(=O)(=O)CC5)C4)cc32)cc1C (stereo not shown) [Example F12, (1,1-Dioxo-hexahydro-1lambda*6*-thiopyran-4-yl)-{3-[1-(6-methoxy-5-methyl-pyridin-3-yl)-2,3-dihydro-1H-pyrido[3,4-b][1,4]oxazin-7-yloxy]-pyrrolidin-1-yl}-methanone] | 440 | < 3 |
| COC(=O)N1CC[C@H](Oc2ccc3c(c2)N(c2cnc(OC)c(C#N)c2)CCO3)C1 [Example D11, (S)-3-[4-(5-Cyano-6-methoxy-pyridin-3-yl)-3,4-dihydro-2H-benzo[1,4]oxazin-6-yloxy]-pyrrolidine-1-carboxylic acid methyl ester] | 442 | 19 |
| COc1ncc(N2CCOc3ccc(O[C@H]4CCN(C(=O)C5CCN(C(C)=O)CC5)C4)cc32)cc1C [Example B90, 1-(4-{(S)-3-[4-(6-Methoxy-5-methyl-pyridin-3-yl)-3,4-dihydro-2H-benzo[1,4]oxazin-6-yloxy]-pyrrolidine-1-carbonyl}-piperidin-1-yl)-ethanone] | 1460 | 11 |
| COc1ncc(N2CCOc3ccc(O[C@H]4CCN(C(=O)[C@H]5CC[C@H](O)CC5)C4)cc32)cc1F [Example B117, {(S)-3-[4-(5-Fluoro-6-methoxy-pyridin-3-yl)-3,4-dihydro-2H-benzo[1,4]oxazin-6-yloxy]-pyrrolidin-1-yl}-(4-hydroxy-cyclohexyl)-methanone] | 1210 | 8 |
| COc1ncc(N2CCOc3ccc(O[C@H]4CCN(C(=O)C5CCNCC5)C4)cc32)cc1C#N [Example D38, 2-Methoxy-5-{6-[(S)-1-(piperidine-4-carbonyl)-pyrrolidin-3-yloxy]-2,3-dihydro-benzo[1,4]oxazin-4-yl}-nicotinonitrile] | 516 | 18 |
| Cc1cc(N2CCOc3ccc(O[C@H]4CCN(S(=O)(=O)C5CCOCC5)C4)cc32)cnc1S(C)(=O)=O [Example B81, 4-(6-Methanesulfonyl-5-methyl-pyridin-3-yl)-6-[(S)-1-(tetrahydro-pyran-4-sulfonyl)-pyrrolidin-3-yloxy]-3,4-dihydro-2H-benzo[1,4]oxazine] | 482 | 81 |
| COc1ncc(N2CCOc3ccc(O[C@H]4CCN(C(=O)c5cocn5)C4)cc32)cc1F [Example B100, {(S)-3-[4-(5-Fluoro-6-methoxy-pyridin-3-yl)-3,4-dihydro-2H-benzo[1,4]oxazin-6-yloxy]-pyrrolidin-1-yl}-oxazol-4-yl-methanone] | 567 | 14 |
| CCOc1ncc(N2CCOc3ccc(O[C@H]4CCN(C(=O)C5CCOCC5)C4)cc32)cc1C [Example B2, {(S)-3-[4-(6-Ethoxy-5-methyl-pyridin-3-yl)-3,4dihydro-2H-benzo[1,4]oxazin-6-yloxy]-pyrrolidin-1-yl}-(tetrahydro-pyran-4-yl)-methanone] | 1640 | 26 |
| Cc1cc(N2CCOc3ccc(O[C@H]4CCN(C(=O)C5CCOC(C)(C)C5)C4)cc32)cnc1S(C)(=O)=O (stereo partly drawn) [Example B26, (2,2-Dimethyl-tetrahydro-pyran-4-yl)-{(S)-3-[4-(6-methanesulfonyl-5-methyl-pyridin-3-yl)-3,4-dihydro-2H-benzo[1,4]oxazin-6-yloxy]-pyrrolidin-1-yl}-methanone] | 281 | < 9 |
| CCC(=O)N1CC[C@H](Oc2ccc3c(c2)N(c2cnc(Cl)c(OC)c2)CCO3)C1 [Example B55, 1-{(S)-3-[4-(6-Chloro-5-methoxy-pyridin-3-yl)-3,4-dihydro-2H-benzo[1,4]oxazin-6-yloxy]-pyrrolidin-1-yl}-propan-1-one] | 3850 | 65 |
| COc1ncc(N2CCOc3ccc(O[C@H]4CCN(C(=O)C5CCCCC5)C4)cc32)cc1C#N [Example D13, 5-[6-((S)-1-Cyclohexanecarbonyl-pyrrolidin-3-yloxy)-2,3-dihydro-benzo[1,4]oxazin-4-yl]-2-methoxy-nicotinonitrile] | 522 | 5 |
| Cc1cc(N2CCOc3ccc(O[C@H]4CCN(C(=O)C(C)C)C4)cc32)cnc1S(C)(=O)=O [Example B33, 1-{(S)-3-[4-(6-Methanesulfonyl-5-methyl-pyridin-3-yl)-3,4-dihydro-2H-benzo[1,4]oxazin-6-yloxy]-pyrrolidin-1-yl}-2-methyl-propan-1-one] | 610 | < 9 |
| CS(=O)(=O)c1ncc(N2CCOc3ccc(O[C@H]4CCN(C(=O)C5CCOCC5)C4)cc32)cc1Cl [Example B79, {(S)-3-[4-(5-Chloro-6-methanesulfonyl-pyridin-3-yl)-3,4-dihydro-2H-benzo[1,4]oxazin-6-yloxy]-pyrrolidin-1-yl}-(tetrahydro-pyran-4-yl)-methanone] | 661 | 3 |
| CCC(=O)N1CC[C@H](Oc2ccc3c(c2)N(c2ccc(OC)c(OC)c2)CCO3)C1 [Example A35, 1-{(S)-3-[4-(3,4-Dimethoxy-phenyl)-3,4-dihydro-2H-benzo[1,4]oxazin-6-yloxy]-pyrrolidin-1-yl}-propan-1-one] | 5590 | 1420 |
| COc1ncc(N2CCOc3ccc(O[C@H]4CCN(C(=O)C5CCS(=O)(=O)CC5)C4)c(F)c32)cc1C(F)F [Example I2] | 308 | 5 |
| COc1cc(N2CCOc3ccc(O[C@H]4CCN(C(=O)CCS(C)(=O)=O)C4)cc32)cnc1OC [Example B45, 1-{(S)-3-[4-(5,6-Dimethoxy-pyridin-3-yl)-3,4-dihydro-2H-benzo[1,4]oxazin-6-yloxy]-pyrrolidin-1-yl}-3-methanesulfonyl-propan-1-one] | 574 | 74.5 |
| COc1ncc(N2CCOc3ccc(O[C@H]4CCN(C(=O)c5ccc(=O)n(C)c5)C4)cc32)cc1C#N [Example D17, 2-Methoxy-5-{6-[(S)-1-(1-methyl-6-oxo-1,6-dihydro-pyridine-3-carbonyl)-pyrrolidin-3-yloxy]-2,3-dihydro-benzo[1,4]oxazin-4-yl}-nicotinonitrile] | 705 | 12 |
| COc1ncc(N2C[C@H](C)Oc3ccc(O[C@H]4CCN(C(=O)C5CCOCC5)C4)cc32)cc1C#N (single isomer, unassigned) [Example O2] | 5690 | 49 |
| CCC(=O)N1CC[C@H](Oc2ccc3c(c2)N(c2cncc(S(=O)(=O)N(C)OC)c2)CCO3)C1 [Example A30, 5-[6-((S)-1-Propionyl-pyrrolidin-3-yloxy)-2,3-dihydro-benzo[1,4]oxazin-4-yl]-pyridine-3-sulfonic acid methoxy-methyl-amide] | 260 | 31 |
| COc1ncc(N2CCOc3ccc(O[C@H]4CCN(C(=O)c5ccncc5)C4)cc32)cc1C#N [Example C17, 2-Methoxy-5-{6-[(S)-1-(pyridine-4-carbonyl)-pyrrolidin-3-yloxy]-2,3-dihydro-benzo[1,4]oxazin-4-yl}-nicotinonitrile] | 358 | 8 |
| COc1cc(N2CCOc3ccc(O[C@H]4CCN(C(=O)C5CCS(=O)(=O)C5)C4)cc32)cnc1OC (single isomer, unassigned) [Example H10] | 727 | 18 |
